The results in this text go back to patent US11466286B2, “Methods and compositions for conferring and/or enhancing herbicide tolerance using protoporphyrinogen oxidase or variant thereof” (FarmHannong Co., Ltd., priority 2016, dated 2022).

The test system of test [1] is A. thaliana transformants with CyPPO10 or CyPPO13 or variants. Put plainly: Herbicide tolerance of A. thaliana transformants (T1). It counts as in vivo, Arabidopsis thaliana. Conditions: 1 μM spray. The text has this: A. thaliana was transformed with a binary vector having ORF of a selectable marker, bar gene (glufosinate-tolerant), and that of each encoding gene of CyPPO10 or CyPPO13 variants. The transgenic plant was examined for cross-tolerance towards glufosinate and PPO-inhibiting herbicides. The bar gene was also used to examine whether the transgene was stably inherited during generations. NOS promoter and E9 terminator were used for bar gene expression.

In test [2] the test system is CyPPO13 (Synechococcus sp. JA-3-3Ab PPO, SEQ ID NO: 4) variant F373T, MBP fusion. The test can be described thus: PPO inhibition assay. In kind it is biochemical. Conditions: herbicide 0-5,000 nM, 50 μM substrate. Here is the method:
(§1) The enzyme activities of PPO protein and PPO protein variants were examined, and inhibition assay by PPO-inhibiting herbicides was conducted. It was confirmed that the PPO protein has low water-solubility, but in case of being expressed as a fusion protein with MBP (maltose binding protein) (MBP-PPO), the PPO protein is able to be stably expressed as water-soluble form. Therefore, the wild type and variant proteins which were expressed in the form of fusion protein with MBP were used in the present test (refer to FIG. 4).
(§2) At first, a substrate of PPO protein, Protoporphyrinogen IX was synthesized. This process was performed in the space where nitrogen gas is streamed. 6 mg of protoporphyrin IX was dissolved in 20% (v/v) EtOH 20 ml, and stirred under dark condition for 30 minutes. The obtained protoporphyrinogen IX solution was put into a 15 ml screw tube in an amount of 800 and flushed with nitrogen gas for 5 minutes. To this, 1 g of sodium amalgam was added and vigorous shaking was performed for 2 minutes. The lid was open to exhaust hydrogen gas in the tube. Thereafter, the lid was closed and incubated for 3 minutes. The […] was filtered using syringe and cellulose membrane filter. To 600 μl of the obtained […], 2M MOPS [3-(N-morpholino)propanesulfonic acid] was added in an amount of approximately 300 thereby adjusting pH to 8.0. To determine the enzyme activity of PPO protein, a reaction mixture was prepared with the following composition (based on 10 ml): 50 mM Tris-Cl (pH 8.0); 50 mM NaCl; 0.04% (v/v) Tween 20; 40 mM glucose (0.072 g); 5 units glucose oxidase (16.6 mg); and 10 units catalase (1 μl).
(§3) Two hundred microliters (200 μl) of reaction mixture containing a purified PPO protein were placed in 96 well plates, and preincubated for 30 min at room temperature to reduce the oxygen concentration by the reaction of glucose oxidase-catalase. The mineral oil was layered and then the reaction was initiated by adding the substrate, […], to a final concentration of 50 μM. The reaction proceeded at room temperature for 30 min and the fluorescence of protoporphyrin IX was measured using Microplate reader (Sense, Hidex) (excitation: 405 nm; emission: 633 nm). To calculate the PPO enzyme activity, protoporphyrinogen IX solution was kept open in the air to oxidize the solution (overnight). To this, 2.7N HCl was added, and the absorbance at 408 nm was measured. A standard curve was generated using standard protoporphyrin IX, and the PPO activity was measured by calibration of protoporphyrin IX using the standard curve of protoporphyrin IX.
(§4) The final concentration of each herbicide was as follows: […]

Test [3] relates to CyPPO13 (Synechococcus sp. JA-3-3Ab PPO, SEQ ID NO: 4) variant F373C, MBP fusion. Put plainly: PPO inhibition assay. It counts as biochemical. The settings on record: herbicide 0-5,000 nM, 50 μM substrate. Here is the method: as §1, §2, §3, §4
The subject of test [4] is CyPPO13 (Synechococcus sp. JA-3-3Ab PPO, SEQ ID NO: 4) variant F373I, MBP fusion. The test can be described thus: PPO inhibition assay. In kind it is biochemical. Conditions: herbicide 0-5,000 nM, 50 μM substrate. As for the experimental part: as §1, §2, §3, §4
Test [5] relates to CyPPO13 (Synechococcus sp. JA-3-3Ab PPO, SEQ ID NO: 4) variant F373H, MBP fusion. The test can be described thus: PPO inhibition assay. In kind it is biochemical. Conditions: herbicide 0-5,000 nM, 50 μM substrate. Here is the method: as §1, §2, §3, §4
For test [6], the system named is CyPPO13 (Synechococcus sp. JA-3-3Ab PPO, SEQ ID NO: 4) variant F373N, MBP fusion. The test can be described thus: PPO inhibition assay. In kind it is biochemical. Conditions: herbicide 0-5,000 nM, 50 μM substrate. As for the experimental part: as §1, §2, §3, §4
The subject of test [7] is CyPPO13 (Synechococcus sp. JA-3-3Ab PPO, SEQ ID NO: 4) variant F373L, MBP fusion. The test can be described thus: PPO inhibition assay. In kind it is biochemical. Conditions: herbicide 0-5,000 nM, 50 μM substrate. Here is the method:
as §1, §2, §3, §4

Test [8] has as its system CyPPO13 (Synechococcus sp. JA-3-3Ab PPO, SEQ ID NO: 4) variant F373V, MBP fusion. Put plainly: PPO inhibition assay. In kind it is biochemical. Conditions: herbicide 0-5,000 nM, 50 μM substrate. As for the experimental part: as §1, §2, §3, §4
Test [9] has as its system BT3 (ΔPPO) E. coli with CyPPO10m-6 (E225G, G258S, Q266L, T336I, V356F, F360M, A364D, R406G, W419R; SEQ ID NO: 131). Put plainly: Growth of BT3 with error-prone PCR mutant of CyPPO10. In kind it is cell-based. The settings on record: up to 200 μM herbicide.
For test [10], the system named is PPO-deficient BT3 E. coli (ΔPPO) with CyPPO13 wild type (Cy13 WT, SEQ ID NO: 4). The test can be described thus: Growth of transformed BT3 (ΔPPO) on tiafenacil media. In kind it is cell-based. Here is the method:
(§5) After transforming PPO-deficient BT3 E. coli (ΔPPO) with CyPPO10 or CyPPO13, the transformed BT3 (ΔPPO) was cultured on LB agar plates containing PPO-inhibiting herbicide to examine the growth level of the transformed BT3 (ΔPPO). BT3 (ΔPPO) strain was obtained from Hokkaido University (Japan). The BT3 (ΔPPO) strain is deficient in hemG-type PPO and has kanamycin tolerance (refer to “Watanabe et al., Dual targeting of spinach protoporphyrinogen oxidase II to mitochondria and chloroplasts by alternative use of two in-frame […], JBC 2001 276(23):20474-20481; Che et al., Molecular Characterization and Subcellular Localization of Protoporphyrinogen Oxidase in Spinach Chloroplasts, Plant Physiol. 2000 September; 124(1):59-70”).
(§6) CyPPO10 and CyPPO13 genes were cloned in pACBB vector (Plasmid #32551; Addgene; refer to FIG. 1).
(§7) For seed culture of E. coli transformed with respective genes, each single colony of E. coli transformant as provided above was cultured in 3 ml of LB broth containing chloramphenicol overnight (220 rpm, 37° C.), and 50 to 100 μl were subcultured in a new 3 ml of LB broth, and they were cultured until absorbance (OD600) became 0.5 to 1, and they were diluted with LB broth to absorbance (OD600) of 0.5. The diluted solution was serially diluted again 5 times by a factor of one tenth with LB broth. […] The LB Agar media were incubated at 37° C., under light condition, and level of inhibiting growth was observed after 16 to 20 hours of incubation.

The subject of test [11] is PPO-deficient BT3 E. coli (ΔPPO) with CyPPO10 wild type (Cy10 WT, SEQ ID NO: 2). The test is described as above. It counts as cell-based. As for the experimental part:
as §5, §6, §7

Structures are written as SMILES.

The IC50 is the concentration at which inhibition is half-maximal. A low value points to higher potency. In the case of `COC(=O)CCNC(=O)C(C)Sc1cc(-n2c(=O)cc(C(F)(F)F)n(C)c2=O)c(F)cc1Cl` (stereo not shown) [Tiafenacil], in test [1], the plant damage entry is listed as “no damage”. Also, the IC50 in test [2] worked out at 818 nM; in test [3], 212 nM; in test [4], 135 nM; in test [5], 114 nM; in [6] it was 40 nM; in test [7], 141 nM. In addition, the concentration for half-maximal inhibition (IC50) in [8] came out at 339 nM. The cell viability entry in test [9] is recorded as “cell viability similar to that of cells with wild type CyPPO10”. The growth result in test [10] (100 μM tiafenacil) is recorded as “at the similar level to that of the medium containing no tiafenacil”; in test [10] (400 μM tiafenacil), “grew well”; in [11] (100 μM tiafenacil), “at the similar level to that of the medium containing no tiafenacil”; in test [11] (400 μM tiafenacil), “grew well”.
